From patent publication US20220087960A1, “Oral Pharmaceutical Immediate Release Composition” (Aardvark Therapeutics Inc., priority 2020, published 2022)
Where two headings read alike, the source gives them in different places.

Columns and labels:
normal C57BL/6 mice = conditions: oral 60 μmol/kg (26.8 mg/kg); cited from earlier work
healthy volunteers = conditions: intragastric administration, cited from earlier work; for nutrient volume tolerance / satiation: 1 μmol/kg DB
[1] = Maximum tolerated dose / LD50 study, single oral gavage, 14-day observational period (Example 7); conditions: both, Sprague Dawley, rat, in vivo
Method: (§1) The drugs were administered to Sprague Dawley rats with a 14-day observational period. Twenty-four Male Sprague Dawley (SD) rats and 24 female SD rats were purchased from Envigo at 8-10 weeks of age. The DA group had four dose levels (120, 360, 1000, and 2000 mg/kg, single administration by oral gavage), 3 rats per sex, 6 animals in total per dose level; and the DB group: four dose levels (120, 360, 1000, and 2000 mg/kg, single administration by oral gavage), 3 rats per sex, 6 animals in total per dose level. The estimated median lethal dose (LD50) was determined by a nonlinear regression [model: Y=100/(1+10^(LogEC50-X)), Hill slope=1.0) to calculate LD50.

Sprague Dawley rats = assay: in vivo; conditions: rat, po; for Mortality rate: both, 14 day
Method: as §1

rodent obesity models = conditions: cited from earlier work
male C57BL/6N DIO mice = assay: 56-day BID treatment, food consumption and body weight in DIO mice (Example 6, second in vivo study); parameters: species or system mouse
Method: In a second in vivo study, 45 male C57BL/6N DIO mice (purchased from Envigo at 18 weeks of age, fed with high-fat diet) were divided into three groups (15 in each group), which were orally administered vehicle (distilled water), 26.8 mg/kg of DB, or 23.1 mg/kg of DA respectively, twice daily (BID), with a 56-day treatment period to compare the efficacy of DB versus DA in food intake reduction and body weight control. Briefly, once weekly, the food weight for each cage was recorded at 0 hour and then 24 hours later, permitting calculation of food consumption for that 24-hour interval. In addition, starting from Day 0, the mice were weighed three times weekly (every 2-3 days).

male SD rats = assay: Single oral dose food intake study, 24-hour observational period (Example 6, first in vivo study); parameters: species or system rat
Method: This example compares efficacy of DA versus DB in food inhibition and body weight control. As a background, according to Avau et al., Sci. Rep. […] In our first in vivo study, 45 male SD rats (purchased from Envigo at 8-10 weeks of age) were divided into three groups (15 in each group), which were administered a single oral dose of vehicle (distilled water), 26.8 mg/kg of DB, or 23.1 mg/kg of DA respectively, with a 24-hour observational period, to compare the efficacy of DB versus DA in reducing food intake. Table 4. Mean cumulative food intake during 24-h observational period

C57BL/6 DIO mice = conditions: 60 μmol/kg (26.8 mg/kg) once daily, 28-day period; cited from earlier work

CC[N+](CC)(CC(=O)Nc1c(C)cccc1C)Cc1ccccc1.O=C([O-])c1ccccc1 [DB, benzyl-[2-(2,6-dimethylanilino)-2-oxoethyl]-diethylazanium benzoate]
gastric emptying rate (normal C57BL/6 mice): significantly inhibited gastric emptying rate | nutrient volume tolerance (healthy volunteers; listed as Denatonium benzoate): reduced nutrient volume tolerance | satiation (healthy volunteers; listed as Denatonium benzoate): increased satiation post meal | nutrient volume tolerance (healthy volunteers): decreased nutrient volume tolerance | satiation (healthy volunteers): increased satiation | hunger ratings (healthy volunteers): decreased hunger ratings | inter-digestive gastric motility (healthy volunteers): attenuated inter-digestive gastric motility | LD50 at 14 day [1]: 784 mg/kg | MTD at 14 day [1]: 360 mg/kg | Mortality rate (Sprague Dawley rats; 120 mg/kg): 0% | Mortality rate (Sprague Dawley rats; 360 mg/kg): 0% | Mortality rate (Sprague Dawley rats; 1000 mg/kg): 66.7% | Mortality rate (Sprague Dawley rats; 2000 mg/kg): 100% | No. of animals died within 24 h post dosing (Sprague Dawley rats; female, 120 mg/kg): 0 | No. of animals died within 24 h post dosing (Sprague Dawley rats; female, 360 mg/kg): 0 | No. of animals died within 24 h post dosing (Sprague Dawley rats; female, 1000 mg/kg): 3 | No. of animals died within 24 h post dosing (Sprague Dawley rats; female, 2000 mg/kg): 3 | No. of animals died within 24 h post dosing (Sprague Dawley rats; male, 120 mg/kg): 0 | No. of animals died within 24 h post dosing (Sprague Dawley rats; male, 360 mg/kg): 0 | No. of animals died within 24 h post dosing (Sprague Dawley rats; male, 1000 mg/kg): 1 | No. of animals died within 24 h post dosing (Sprague Dawley rats; male, 2000 mg/kg): 3 | food intake (rodent obesity models): suppressed food intake | weight gain (rodent obesity models): inhibited weight gain | body weight gain as compared to vehicle treatment (male C57BL/6N DIO mice; DIO mice on high-fat diet, 26.8 mg/kg DB or 23.1 mg/kg DA BID): less body weight gain as compared to vehicle treatment | Mean food consumption per animal for 24-h interval, Day 0 (male C57BL/6N DIO mice; DIO mice, BID oral (DA 23.1 mg/kg, DB 26.8 mg/kg), Day 0): 2.5 gram | Mean food consumption per animal for 24-h interval, Day 7 (male C57BL/6N DIO mice; DIO mice, BID oral (DA 23.1 mg/kg, DB 26.8 mg/kg), Day 7): 1.8 gram | Mean food consumption per animal for 24-h interval, Day 14 (male C57BL/6N DIO mice; DIO mice, BID oral (DA 23.1 mg/kg, DB 26.8 mg/kg), Day 14): 2.6 gram | Mean food consumption per animal for 24-h interval, Day 21 (male C57BL/6N DIO mice; DIO mice, BID oral (DA 23.1 mg/kg, DB 26.8 mg/kg), Day 21): 2.9 gram | Mean food consumption per animal for 24-h interval, Day 28 (male C57BL/6N DIO mice; DIO mice, BID oral (DA 23.1 mg/kg, DB 26.8 mg/kg), Day 28): 2.5 gram | Mean food consumption per animal for 24-h interval, Day 35 (male C57BL/6N DIO mice; DIO mice, BID oral (DA 23.1 mg/kg, DB 26.8 mg/kg), Day 35): 2.5 gram | Mean food consumption per animal for 24-h interval, Day 42 (male C57BL/6N DIO mice; DIO mice, BID oral (DA 23.1 mg/kg, DB 26.8 mg/kg), Day 42): 2.0 gram | Mean food consumption per animal for 24-h interval, Day 49 (male C57BL/6N DIO mice; DIO mice, BID oral (DA 23.1 mg/kg, DB 26.8 mg/kg), Day 49): 2.4 gram | Mean food consumption per animal for 24-h interval, Day 56 (male C57BL/6N DIO mice; DIO mice, BID oral (DA 23.1 mg/kg, DB 26.8 mg/kg), Day 56): 2.5 gram | Mean normalized body weight (% of baseline), study day 0 (male C57BL/6N DIO mice; DIO mice, BID oral (DA 23.1 mg/kg, DB 26.8 mg/kg), day 0): 100.0 % of baseline | Mean normalized body weight (% of baseline), study day 4 (male C57BL/6N DIO mice; DIO mice, BID oral (DA 23.1 mg/kg, DB 26.8 mg/kg), day 4): 100.5 % of baseline | Mean normalized body weight (% of baseline), study day 7 (male C57BL/6N DIO mice; DIO mice, BID oral (DA 23.1 mg/kg, DB 26.8 mg/kg), day 7): 99.7 % of baseline | Mean normalized body weight (% of baseline), study day 9 (male C57BL/6N DIO mice; DIO mice, BID oral (DA 23.1 mg/kg, DB 26.8 mg/kg), day 9): 99.4 % of baseline | Mean normalized body weight (% of baseline), study day 11 (male C57BL/6N DIO mice; DIO mice, BID oral (DA 23.1 mg/kg, DB 26.8 mg/kg), day 11): 99.0 % of baseline | Mean normalized body weight (% of baseline), study day 14 (male C57BL/6N DIO mice; DIO mice, BID oral (DA 23.1 mg/kg, DB 26.8 mg/kg), day 14): 99.3 % of baseline | Mean normalized body weight (% of baseline), study day 16 (male C57BL/6N DIO mice; DIO mice, BID oral (DA 23.1 mg/kg, DB 26.8 mg/kg), day 16): 98.0 % of baseline | Mean normalized body weight (% of baseline), study day 18 (male C57BL/6N DIO mice; DIO mice, BID oral (DA 23.1 mg/kg, DB 26.8 mg/kg), day 18): 97.9 % of baseline | Mean normalized body weight (% of baseline), study day 21 (male C57BL/6N DIO mice; DIO mice, BID oral (DA 23.1 mg/kg, DB 26.8 mg/kg), day 21): 99.5 % of baseline | Mean normalized body weight (% of baseline), study day 23 (male C57BL/6N DIO mice; DIO mice, BID oral (DA 23.1 mg/kg, DB 26.8 mg/kg), day 23): 100.5 % of baseline | Mean normalized body weight (% of baseline), study day 25 (male C57BL/6N DIO mice; DIO mice, BID oral (DA 23.1 mg/kg, DB 26.8 mg/kg), day 25): 100.3 % of baseline | Mean normalized body weight (% of baseline), study day 28 (male C57BL/6N DIO mice; DIO mice, BID oral (DA 23.1 mg/kg, DB 26.8 mg/kg), day 28): 100.2 % of baseline | Mean normalized body weight (% of baseline), study day 30 (male C57BL/6N DIO mice; DIO mice, BID oral (DA 23.1 mg/kg, DB 26.8 mg/kg), day 30): 100.5 % of baseline | Mean normalized body weight (% of baseline), study day 32 (male C57BL/6N DIO mice; DIO mice, BID oral (DA 23.1 mg/kg, DB 26.8 mg/kg), day 32): 102.8 % of baseline | Mean normalized body weight (% of baseline), study day 34 (male C57BL/6N DIO mice; DIO mice, BID oral (DA 23.1 mg/kg, DB 26.8 mg/kg), day 34): 103.6 % of baseline | Mean normalized body weight (% of baseline), study day 36 (male C57BL/6N DIO mice; DIO mice, BID oral (DA 23.1 mg/kg, DB 26.8 mg/kg), day 36): 104.1 % of baseline | Mean normalized body weight (% of baseline), study day 39 (male C57BL/6N DIO mice; DIO mice, BID oral (DA 23.1 mg/kg, DB 26.8 mg/kg), day 39): 104.7 % of baseline | Mean normalized body weight (% of baseline), study day 41 (male C57BL/6N DIO mice; DIO mice, BID oral (DA 23.1 mg/kg, DB 26.8 mg/kg), day 41): 105.3 % of baseline | Mean normalized body weight (% of baseline), study day 46 (male C57BL/6N DIO mice; DIO mice, BID oral (DA 23.1 mg/kg, DB 26.8 mg/kg), day 46): 106.0 % of baseline | Mean normalized body weight (% of baseline), study day 49 (male C57BL/6N DIO mice; DIO mice, BID oral (DA 23.1 mg/kg, DB 26.8 mg/kg), day 49): 107.8 % of baseline | Mean normalized body weight (% of baseline), study day 51 (male C57BL/6N DIO mice; DIO mice, BID oral (DA 23.1 mg/kg, DB 26.8 mg/kg), day 51): 107.8 % of baseline | Mean normalized body weight (% of baseline), study day 53 (male C57BL/6N DIO mice; DIO mice, BID oral (DA 23.1 mg/kg, DB 26.8 mg/kg), day 53): 107.4 % of baseline | Mean normalized body weight (% of baseline), study day 56 (male C57BL/6N DIO mice; DIO mice, BID oral (DA 23.1 mg/kg, DB 26.8 mg/kg), day 56): 108.4 % of baseline | food consumption compared to vehicle-dosed mice (male C57BL/6N DIO mice; DIO mice, BID oral, 56-day treatment): Lower food consumption was also seen on Days 0, 7, 28, 35, 42 and 49 | Mean cumulative food intake 0-2 h (male SD rats; single oral dose (DA 23.1 mg/kg, DB 26.8 mg/kg), 0-2 h, N = 15): 4.8 gram | Mean cumulative food intake 0-4 h (male SD rats; single oral dose (DA 23.1 mg/kg, DB 26.8 mg/kg), 0-4 h, N = 15): 7.7 gram | Mean cumulative food intake 0-6 h (male SD rats; single oral dose (DA 23.1 mg/kg, DB 26.8 mg/kg), 0-6 h, N = 15): 10.9 gram | Mean cumulative food intake 0-8 h (male SD rats; single oral dose (DA 23.1 mg/kg, DB 26.8 mg/kg), 0-8 h, N = 15): 13.8 gram | Mean cumulative food intake 0-24 h (male SD rats; single oral dose (DA 23.1 mg/kg, DB 26.8 mg/kg), 0-24 h, N = 15): 20.6 gram | cumulative food intake as compared with vehicle (male SD rats; single oral dose, all indicated time intervals): reduced cumulative food intake during all the indicated time intervals as compared with vehicle | body weight as compared to vehicle (C57BL/6 DIO mice): induced a decrease in body weight
